Measured values: PMC6572003 (The Journal of General Physiology, 2019)
Changes are numbered by the printed parent chain. Each block holds one molecule with its values, some of them ahead of it.

Tests used:
Assay in all cases: two-electrode voltage clamp, Xenopus oocytes, current integral
Assay type in all cases: cell-based
[1] = molecular target: T1, human P2X4 (Homo sapiens, UniProt Q99571)
T1 sequence (Q99571 1-388): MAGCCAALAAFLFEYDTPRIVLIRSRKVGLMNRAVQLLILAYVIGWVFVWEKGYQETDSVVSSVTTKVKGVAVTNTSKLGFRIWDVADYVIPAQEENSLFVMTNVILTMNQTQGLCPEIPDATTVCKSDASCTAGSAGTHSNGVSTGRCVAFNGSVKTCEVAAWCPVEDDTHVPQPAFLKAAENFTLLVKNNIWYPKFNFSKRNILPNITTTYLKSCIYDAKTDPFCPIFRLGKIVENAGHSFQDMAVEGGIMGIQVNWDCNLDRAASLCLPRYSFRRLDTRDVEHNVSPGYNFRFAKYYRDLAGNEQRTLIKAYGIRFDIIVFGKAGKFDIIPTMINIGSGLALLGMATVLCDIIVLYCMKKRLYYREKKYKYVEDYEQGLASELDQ

[2] = molecular target: T1, human P2X4; settings: read-out: % inhibition at 250 μM
[3] = molecular target: T2, human P2X4 (Homo sapiens, UniProt Q99571, E51A); settings: read-out: % inhibition at 250 μM
T2 sequence (Q99571 1-388 E51A): T1 sequence (Q99571 1-388) with E51A

[4] = molecular target: T3, human P2X4 (Homo sapiens, UniProt Q99571, D331A); settings: read-out: % inhibition at 250 μM
T3 sequence (Q99571 1-388 D331A): T1 sequence (Q99571 1-388) with D331A

[5] = molecular target: T4, human P2X4 (Homo sapiens, UniProt Q99571, M336A); settings: read-out: % inhibition at 250 μM
T4 sequence (Q99571 1-388 M336A): T1 sequence (Q99571 1-388) with M336A

[6] = molecular target: T5, human P2X4 (Homo sapiens, UniProt Q99571, W50A); settings: read-out: % inhibition at 250 μM
T5 sequence (Q99571 1-388 W50A): T1 sequence (Q99571 1-388) with W50A

[7] = molecular target: T1, human P2X4; remark: listed apart in the source

EC50 [1]: 4.8 ± 1.2 µM
Structure (SMILES): Nc1ncnc2c1ncn2[C@@H]1O[C@H](COP(=O)(O)OP(=O)(O)OP(=O)(O)O)[C@@H](O)[C@H]1O [ATP]

inhibition at 250 µM [2]: 73 ± 2%
Structure (SMILES): C[C@H](CCC(=O)O)[C@H]1CC[C@H]2[C@@H]3CC[C@@H]4C[C@H](O)CC[C@]4(C)[C@H]3C[C@H](O)[C@]12C [DCA, deoxycholic acid]

inhibition at 250 µM [2]: 25 ± 9%
Structure (SMILES): C[C@H](CCC(=O)NCCS(=O)(=O)O)[C@H]1CC[C@H]2[C@@H]3[C@H](O)C[C@@H]4C[C@H](O)CC[C@]4(C)[C@H]3CC[C@]12C [t-CDCA, tauro-chenodeoxycholic acid]

inhibition at 250 µM [3]: 74% | inhibition at 250 µM [4]: 38% | inhibition at 250 µM [5]: 22% | inhibition at 250 µM [6]: 63% | IC50 [7]: ~160 µM
Structure (SMILES): C[C@H](CCC(=O)NCCS(=O)(=O)O)[C@H]1CC[C@H]2[C@@H]3CC[C@@H]4C[C@H](O)CC[C@]4(C)[C@H]3C[C@H](O)[C@]12C [t-DCA, tauro-deoxycholic acid]
